Test results as given in patent US10807968B2, “Substituted 2-(het)arylimidazolylcarboxyamides as pesticides” (Bayer CropScience Aktiengesellschaft, priority 2016, dated 2020).
Read-outs that look alike come from different tables or passages of the source.

What was measured:
[1] = log P determination by HPLC on reversed-phase (C18) columns, OECD Guideline 117; type: physicochemical; details: for chromatographic logP: reversed-phase (C18) HPLC column
Experimental: The log P values were determined in accordance with OECD Guideline 117 (EC Directive 92/69/EEC) by HPLC (high-performance liquid chromatography) using reversed-phase (RP) columns (C18), by the following methods:
[a] The LC-MS determination in the acidic range was carried out at pH 2.7 with 0.1% aqueous formic acid and acetonitrile (contains 0.1% formic acid) as mobile phases; linear gradient from 10% acetonitrile to 95% acetonitrile.
[b] LC-MS determination in the neutral range was carried out at pH 7.8 with 0.001 molar aqueous ammonium hydrogencarbonate solution and acetonitrile as mobile phases; linear gradient from 10% acetonitrile to 95% acetonitrile.

Myzus persicae [2] = experiment: Myzus persicae - spray test (Chinese cabbage leaf discs); type: in vivo; details: 500 g/ha, after 6 days; for pest or weed control at 500 g/ha: Myzus persicae, foliar, 144 h, read-out: efficacy in % (aphids killed)
Experimental: Myzus persicae—Spray Test
Solvent: 78 parts by weight of acetone • • 1.5 parts by weight of dimethylformamide
Emulsifier: alkylaryl polyglycol ether
To produce a suitable preparation of active compound, 1 part by weight of active compound is dissolved using the specified parts by weight of solvent and made up with water containing an emulsi fier concentration of 1000 ppm until the desired concentration is attained. To produce further test concentrations, the formulation is diluted with emulsifier-containing water.
Discs of Chinese cabbage leaves (Brassica pekinensis) infested by all stages of the green peach aphid (Myzus persicae) are sprayed with an active compound formulation of the desired concentration.
After 6 days, the efficacy in % is determined. 100% means that all the aphids have been killed; 0% means that no aphids have been killed.

Myzus persicae [3] = experiment: Myzus persicae - oral test; type: in vivo; details: after 5 days; for efficacy in % (aphids killed): 20 ppm; for pest or weed control at 20 ppm: Myzus persicae, 120 h, read-out: efficacy in % (aphids killed)
Experimental: Solvent: 100 parts by weight of acetone
Subsequently, the plates are sealed with parafilm, which a mixed population of green peach aphids (Myzus persicae) within a second microtitre plate is able to puncture and imbibe the solution through it.
After 5 days, the efficacy in % is determined. 100% means that all the aphids have been killed; 0% means that no aphids have been killed.

[4] = HPLC, acidic range pH 2.7, 0.1% aqueous formic acid/acetonitrile
[5] = pH 2.7, HPLC, acidic range pH 2.7, 0.1% aqueous formic acid/acetonitrile, read-out: logp-acidic
[6] = pH 7.8, HPLC, neutral range pH 7.8, 0.001 molar aqueous ammonium hydrogencarbonate/acetonitrile, read-out: logp-neutral
[7] = HPLC, neutral range pH 7.8, 0.001 molar aqueous ammonium hydrogencarbonate/acetonitrile

| logp-acidic ([1]; pH 2.7) | logp-neutral ([1]; pH 7.8) | SMILES | efficacy in % (aphids killed) (Myzus persicae [2]) | efficacy in % (aphids killed) (Myzus persicae [3]) | other results |
| --- | --- | --- | --- | --- | --- |
| 0.65 | 1.45 | COc1ccccc1-c1ncc(C(=O)N(C)c2cccnc2)n1C [Example 82] | 100% | 100% |  |
|  |  | CN(C(=O)c1cnc(-c2ccc(Cl)c(Cl)c2)n1C)c1cccnc1 [Example 13] | 90% | 100% | logp-acidic [1, 4]: 1.79 |
|  |  | C#Cc1ncc(C(=O)N(C)c2cccnc2)n1C [XIV, 2-ethynyl-N,1-dimethyl-N-(pyridin-3-yl)-1H-imidazole-5-carboxamide] |  |  | chromatographic logP [1, 5]: 0.53; chromatographic logP [1, 6]: 0.87 |
|  |  | CCN(C(=O)c1cnc(-c2cnc(OC)c(C#N)c2)n1C)c1cccnc1 [Example 75] |  |  | chromatographic logP [1, 5]: 1.46; chromatographic logP [1, 6]: 1.65; pest or weed control at 500 g/ha (Myzus persicae [2]): 100%; pest or weed control at 20 ppm (Myzus persicae [3]): 100% |
| 0.9 |  | COc1ccc(OC)c(-c2ncc(C(=O)N(C)c3cccnc3)n2C)c1 [Example 85] |  | 100% |  |
|  |  | CCN(C(=O)c1cncn1C)c1cccnc1 [VII-ethyl] |  |  | chromatographic logP [1, 6]: 0.78 |
| 1.07 | 1.49 | CN(C(=O)c1cnc(-c2cnn(-c3ccccc3C#N)c2)n1C)c1cccnc1 [Example 24] | 90% | 100% |  |
|  |  | CN(C(=O)c1cnc(-c2ccoc2)n1C)c1cccnc1 [Example 15] | 90% | 100% | logp-acidic [1, 4]: 0.29 |
| 1.28 | 1.86 | CN(C(=O)c1cnc(-c2cccc(COC(=O)C3CC3)c2)n1C)c1cccnc1 [Example 45] | 90% | 90% |  |
| 1.37 | 1.67 | COc1cc(-c2ncc(C(=O)N(C)c3cccnc3)n2C)cc(OC)n1 [Example 97] | 100% | 100% |  |
| 0.53 | 1.16 | COc1ncccc1-c1ncc(C(=O)N(C)c2cccnc2)n1C [Example 88] | 90% | 100% |  |
|  |  | CN(C(=O)c1cnc(Br)n1C)c1cccnc1 [XI] |  |  | chromatographic logP [1, 5]: 0.65; chromatographic logP [1, 6]: 0.93 |
| 1.21 | 1.52 | CN(C(=O)c1cnc(-c2cc(F)cc(C#N)c2)n1C)c1cccnc1 [Example 60] | 90% | 100% |  |
|  |  | CN(C(=O)c1cnc(-c2cn(C)nn2)n1C)c1cccnc1 [Example 74] |  |  | chromatographic logP [1, 5]: 0.27; chromatographic logP [1, 6]: 0.76; pest or weed control at 500 g/ha (Myzus persicae [2]): 100%; pest or weed control at 20 ppm (Myzus persicae [3]): 100% |
| 1.07 | 1.43 | CN(C(=O)c1cnc(-c2cccc([S+]([O-])CC(F)(F)F)c2)n1C)c1cccnc1 (centres unmarked) [Example 5] | 90% | 100% |  |
| 1 | 1.26 | COc1cc(-c2ncc(C(=O)N(C)c3cccnc3)n2C)ccn1 [Example 94] | 90% | 100% |  |
|  |  | CN(C(=O)c1cnc(-c2cc(Cl)cc(C#N)c2)n1C)c1cccnc1 [Example 69] | 100% | 100% | logp-acidic [1, 4]: 1.52; logp-neutral [1, 7]: 1.74 |
| 1.24 | 1.75 | CSc1cccc(-c2ncc(C(=O)N(C)c3cccnc3)n2C)c1 [Example 3] | 90% | 100% |  |
|  |  | COc1cc(C#N)cc(-c2ncc(C(=O)N(C)c3cccnc3)n2C)c1 [Example 100] | 90% | 100% | logp-acidic [1, 4]: 1.34; logp-neutral [1, 7]: 1.57 |
| 2.43 | 2.63 | CN(C(=O)c1cnc(-c2cc(C(F)(F)F)cc(C(F)(F)F)c2)n1C)c1cccnc1 [Example 53] | 90% | 100% |  |
|  |  | COC(=O)c1cnc(-c2cc(SCC(F)(F)F)c(C)cc2F)n1C [XVIII, methyl 2-{2-fluoro-4-methyl-5-[(2,2,2-trifluoroethyl)sulphanyl]phenyl}-1-methyl-1H-imidazole-5-carboxylate] |  |  | chromatographic logP [1, 5]: 3.09; chromatographic logP [1, 6]: 3.19 |

| logp-acidic ([1]; pH 2.7) | logp-neutral ([1]; pH 7.8) | SMILES | efficacy in % (aphids killed) (Myzus persicae [2]) | efficacy in % (aphids killed) (Myzus persicae [3]) | other results |
| --- | --- | --- | --- | --- | --- |
| 1.90 | 2.14 | CN(C(=O)c1cnc(-c2cc(F)cc(C(F)(F)F)c2)n1C)c1cccnc1 [Example 54] | 90% | 100% |  |
| 1.16 | 1.45 | CN(C(=O)c1cnc(-c2cnc(N3CCOCC3)c(C#N)c2)n1C)c1cccnc1 [Example 66] | 90% | 100% |  |
|  |  | COCc1cccc(-c2ncc(C(=O)N(C)c3cccnc3)n2C)c1 [Example 19] | 90% | 90% | logp-acidic [1, 4]: 0.86; logp-neutral [1, 7]: 1.43 |
|  |  | CN(C(=O)c1cnc(-c2ccc(Cl)c(C#N)c2)n1C)c1cccnc1 [Example 59] | 90% | 100% | logp-acidic [1, 4]: 1.42; logp-neutral [1, 7]: 1.69 |
| 1.19 | 1.70 | CN(C(=O)c1cnc(-c2cnn(-c3ccccc3)c2)n1C)c1cccnc1 [Example 26] | 90% | 100% |  |
| 1.44 |  | CCOC(=O)COc1cc(-c2ncc(C(=O)N(C)c3cccnc3)n2C)ccc1F [Example 43] |  |  |  |
|  |  | Cc1cc(F)c(-c2ncc(C(=O)N(C)c3cccnc3)n2C)cc1SCC(F)(F)F [Example 2] |  |  | chromatographic logP [1, 5]: 2.23; chromatographic logP [1, 6]: 2.48; pest or weed control at 500 g/ha (Myzus persicae [2]): 90%; pest or weed control at 20 ppm (Myzus persicae [3]): 100% |
| 1.28 | 1.68 | COc1ncc(-c2ncc(C(=O)N(C)c3cccnc3)n2C)cc1Cl [Example 90] | 90% | 100% |  |
| 0.7 |  | CN(C(=O)c1cnc(-c2cccc3c2OCC3)n1C)c1cccnc1 [Example 79] | 100% | 100% |  |
| 0.8 | 1.54 | COc1ccc(-c2ncc(C(=O)N(C)c3cccnc3)n2C)c(OC)c1 [Example 84] | 100% | 100% |  |
| 1.91 | 2.04 | CN(C(=O)c1cnc(-c2cccc(C(F)(F)F)n2)n1C)c1cccnc1 [Example 86] | 90% | 100% |  |
| 1.39 | 1.81 | CC(=O)OCc1cc(-c2ncc(C(=O)N(C)c3cccnc3)n2C)ccc1F [Example 44] | 90% | 90% |  |
| 1.18 | 1.70 | CCOC(=O)COc1cccc(-c2ncc(C(=O)N(C)c3cccnc3)n2C)c1 [Example 41] |  |  |  |
|  |  | COc1ccc(-c2ncc(C(=O)N(C)c3cccnc3)n2C)cc1[N+](=O)[O-] [Example 96] |  |  | logp-acidic [1, 4]: 1.2; logp-neutral [1, 7]: 1.53 |
|  |  | Cc1cc(F)c(B2OC(C)(C)C(C)(C)O2)cc1SCC(F)(F)F [XVI, 2-{2-fluoro-4-methyl-5-[(2,2,2-trifluoroethyl)sulphanyl]phenyl}-4,4,5,5-tetramethyl-1,3,2-dioxaborolane] |  |  | chromatographic logP [1, 5]: 4.89; chromatographic logP [1, 6]: 4.8 |
| 1.80 | 2.02 | CCOC(=O)COc1cc(-c2ncc(C(=O)N(C)c3cccnc3)n2C)cc(F)c1F [Example 42] |  |  |  |
| 1.14 | 1.59 | CSc1ccccc1-c1ncc(C(=O)N(C)c2cccnc2)n1C [Example 98] |  | 100% |  |
|  |  | Cc1cc(F)c(-c2ncc(C(=O)O)n2C)cc1SCC(F)(F)F [XIX] |  |  | chromatographic logP [1, 5]: 1.83; chromatographic logP [1, 6]: 0.95 |
|  |  | CN(C(=O)c1cnc(-c2cccc(COC3CCOCC3)c2)n1C)c1cccnc1 [Example 20] |  |  | chromatographic logP [1, 5]: 1.11; chromatographic logP [1, 6]: 1.57; pest or weed control at 500 g/ha (Myzus persicae [2]): 90% |
|  |  | CN(C(=O)c1cnc(-c2ccncc2)n1C)c1cccnc1 [Example 33] |  |  | pest or weed control at 500 g/ha (Myzus persicae [2]): 100%; pest or weed control at 20 ppm (Myzus persicae [3]): 100% |

| SMILES | logp-acidic ([1]; pH 2.7) | logp-neutral ([1]; pH 7.8) | efficacy in % (aphids killed) (Myzus persicae [2]) | efficacy in % (aphids killed) (Myzus persicae [3]) | other results |
| --- | --- | --- | --- | --- | --- |
| CN(C(=O)c1cnc(-c2cccc(SC(F)(F)F)c2)n1C)c1cccnc1 [Example 17] | 2.00 | 2.28 | 90% | 100% |  |
